Test results: PubChem BioAssay (NCI)
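All cell lines were grown in 96-well plates and treated with compound for 48 hours. GI50 is the concentration that inhibits growth by half. TGI: total growth inhibition.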

How the values were obtained:
Assay in all cases: growth of human tumour cells (NCI), 48 h
ACHN renal = test system: ACHN renal
CAKI-1 renal = test system: CAKI-1 renal
HCC-2998 colon = test system: HCC-2998 colon
HCT-116 colon = test system: HCT-116 colon
M14 melanoma = test system: M14 melanoma
MOLT-4 leukemia = test system: MOLT-4 leukemia
NCI-H460 lung = test system: NCI-H460 lung
OVCAR-4 ovarian = test system: OVCAR-4 ovarian
NCI-H522 lung = test system: NCI-H522 lung
MDA-MB-435 = test system: MDA-MB-435

Row | SMILES | TGI (ACHN renal) | TGI (CAKI-1 renal) | TGI (HCC-2998 colon) | TGI (HCT-116 colon) | TGI (M14 melanoma) | TGI (MOLT-4 leukemia) | TGI (NCI-H460 lung) | TGI (OVCAR-4 ovarian) | TGI (NCI-H522 lung) | TGI (MDA-MB-435) | GI50 (ACHN renal) | GI50 (CAKI-1 renal) | GI50 (HCT-116 colon) | GI50 (M14 melanoma) | GI50 (MDA-MB-435) | GI50 (MOLT-4 leukemia) | GI50 (NCI-H460 lung) | GI50 (NCI-H522 lung) | GI50 (HCC-2998 colon) | GI50 (OVCAR-4 ovarian)
1 | S=c1nc(COc2ccc(Cl)cc2Cl)[nH][nH]1 | > 100 µM | > 100 µM | > 100 µM | > 100 µM | > 100 µM | > 100 µM | > 100 µM | > 100 µM | – | – | – | – | – | – | – | – | – | – | – | –
2 | O=[N+]([O-])c1ccc(C2CC(c3ccccc3Cl)=Nc3ccccc3S2=O)cc1 (stereo not given) | 4.26 µM | 4.33 µM | 6.85 µM | 3.49 µM | 20.7 µM | 7.47 µM | 17.9 µM | 6.12 µM | 3.28 µM | – | – | – | – | – | – | – | – | – | – | –
3 | N#CC1CCCCOCCOCCOCCOCCOCCCCCC1=O (stereo not given) | > 100 µM | > 100 µM | > 100 µM | > 100 µM | > 100 µM | > 100 µM | > 100 µM | > 100 µM | > 100 µM | – | – | – | – | – | – | – | – | – | – | –
4 | O=[N+]([O-])c1ccc(Cl)c(C2CC(c3cccc4ccccc34)=Nc3ccccc3S2)c1 (stereo not given) | > 100 µM | > 100 µM | > 100 µM | 38.7 µM | 63.4 µM | > 56.9 µM | > 100 µM | > 100 µM | 43.9 µM | – | – | – | – | – | – | – | – | – | – | –
5 | Cc1nnc2c3nnc(C)n3c3ccccc3n12 | > 100 µM | > 100 µM | > 100 µM | > 100 µM | > 100 µM | > 100 µM | > 100 µM | > 100 µM | > 100 µM | – | – | – | – | – | – | – | – | – | – | –
6 | O=c1cc(-c2c[nH]c3ccccc23)[nH]c2cc3c(cc12)OCO3 | > 100 µM | – | > 100 µM | > 100 µM | > 100 µM | > 100 µM | > 100 µM | > 100 µM | – | – | – | – | – | – | – | – | – | – | – | –
7 | CC(C)(C)c1ccc(OC(=O)Nc2ccc(O)c(C(=O)O)c2)cc1 | > 100 µM | > 100 µM | – | > 100 µM | > 100 µM | > 100 µM | > 100 µM | > 100 µM | > 100 µM | > 100 µM | – | – | – | – | – | – | – | – | – | –
8 | COc1cccc(CSCC(=O)O)c1 | > 100 µM | > 100 µM | – | > 100 µM | > 100 µM | – | > 100 µM | > 100 µM | > 100 µM | > 100 µM | – | – | – | – | – | – | – | – | – | –
9 | CS(=O)(=O)NNS(=O)(=O)c1ccccc1 | > 100 µM | > 100 µM | > 100 µM | > 100 µM | > 100 µM | > 100 µM | > 100 µM | > 100 µM | > 100 µM | – | – | – | – | – | – | – | – | – | – | –
10 | CN(C)c1nnnn1-c1c(N)n(C)c(=O)n(C)c1=O | > 100 µM | > 100 µM | > 100 µM | > 100 µM | – | > 100 µM | > 100 µM | > 100 µM | > 100 µM | – | – | – | – | – | – | – | – | – | – | –
11 | Cc1ccc(NC(=O)C2C(=O)N(c3ccc(C)c(C)c3)C(=O)/C2=N\NC(N)=O)cc1C (stereo not given) | > 100 µM | > 100 µM | > 100 µM | > 100 µM | > 100 µM | > 100 µM | > 100 µM | > 100 µM | > 100 µM | – | – | – | – | – | – | – | – | – | – | –
12 | NC(=O)c1ccccc1NC(=O)C(=O)Cc1nc2ccccc2[nH]c1=O | > 100 µM | > 100 µM | > 100 µM | > 100 µM | > 100 µM | > 100 µM | > 100 µM | > 100 µM | > 100 µM | – | – | – | – | – | – | – | – | – | – | –
13 | Cc1cc(-c2ccccc2)nc(Nc2nc3ccccc3o2)n1 | > 100 µM | > 100 µM | > 100 µM | > 100 µM | > 100 µM | > 100 µM | > 100 µM | > 100 µM | > 100 µM | – | – | – | – | – | – | – | – | – | – | –
14 | Clc1ccc(-c2csc(Nc3cccc(-c4csc(-c5ccccc5)n4)c3)n2)cc1 | 42.1 µM | 25.6 µM | – | 18.5 µM | 24.1 µM | > 50 µM | 27.1 µM | – | 23.5 µM | 21.6 µM | 14.6 µM | 9.77 µM | 8.97 µM | 11.6 µM | 9.05 µM | 19.5 µM | 10.5 µM | 10.2 µM | – | –
15 | O=[N+]([O-])c1ccc(Oc2nc(Nc3ccc(O[C@H]4CO[C@H]5[C@@H]4OC[C@@H]5O)c(Cl)c3)ncc2F)c(Cl)c1 | 4.55 µM | 8.11 µM | 7.07 µM | – | 1.93 µM | 4.82 µM | 2.98 µM | 5.73 µM | 5.6 µM | 3.5 µM | 0.79 µM | 2.28 µM | – | 0.565 µM | 1.2 µM | 1.27 µM | 0.853 µM | 1.17 µM | 2.12 µM | 1.19 µM
16 | S=C(Nc1ccc(N=Nc2ccccc2)cc1)SCc1ccccc1 | 31.3 µM | 32.9 µM | – | 31.9 µM | 37.6 µM | 27.9 µM | 39.5 µM | 33.2 µM | 36.2 µM | 36.4 µM | – | – | – | – | – | – | – | – | – | –
17 | CC(=O)c1c(CN(C)c2ccccc2)n([O-])c2ccccc2[n+]1=O | > 100 µM | – | > 100 µM | > 100 µM | 80.4 µM | > 100 µM | > 100 µM | > 100 µM | 69.9 µM | – | 32.9 µM | – | 27.9 µM | 31.4 µM | – | 23.9 µM | 33.6 µM | 25.6 µM | 30.9 µM | 29 µM
18 | NC(=O)c1c([N+](=O)[O-])cc(C(F)(F)F)cc1[N+](=O)[O-] | > 100 µM | > 100 µM | > 100 µM | > 100 µM | > 100 µM | > 100 µM | > 100 µM | > 100 µM | > 100 µM | – | – | – | – | – | – | – | – | – | – | –
19 | O=C(O)C1CCCCC1c1c2ccc(=O)c(O)c-2oc2c(O)c(O)ccc12 (stereo not given) | 60.1 µM | > 100 µM | – | 28.4 µM | > 100 µM | 84.4 µM | > 100 µM | 64 µM | 67 µM | 44.5 µM | – | – | – | – | – | – | – | – | – | –
20 | Cc1noc2c1C(=O)CCC2 | > 100 µM | > 100 µM | – | > 100 µM | > 100 µM | > 100 µM | – | > 100 µM | > 100 µM | – | – | – | – | – | – | – | – | – | – | –
21 | NC1=NC(c2ccc(Cl)cc2)N(c2ccc(S(N)(=O)=O)cc2)C(N)=N1 (stereo not given) | > 100 µM | > 100 µM | – | > 100 µM | > 100 µM | > 100 µM | > 100 µM | > 100 µM | > 100 µM | > 100 µM | – | – | – | – | – | – | – | – | – | –
